Experimental data reported in PubChem BioAssay (NCI).
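Cells were grown in 96-well plates and exposed to each compound for 48 hours at five concentrations; endpoints were interpolated linearly between bracketing concentrations, or set to the highest concentration if not reached. TGI: total growth inhibition.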

Tests used:
Assay in all cases: DTP human tumour cell line panel, 48 h
A498 renal = tested on: A498 renal
BT-549 breast = tested on: BT-549 breast
HCT-116 colon = tested on: HCT-116 colon
HS 578T breast = tested on: HS 578T breast
MDA-MB-435 = tested on: MDA-MB-435
PC-3 prostate = tested on: PC-3 prostate
SF-268 CNS = tested on: SF-268 CNS
SF-539 CNS = tested on: SF-539 CNS
SR leukemia = tested on: SR leukemia
MALME-3M melanoma = tested on: MALME-3M melanoma

Cc1ccc(S(=O)(=O)Nc2nc3ccccc3c(=O)n2C2CCCCC2)cc1
TGI (A498 renal): > 100 µM
TGI (BT-549 breast): > 100 µM
TGI (HCT-116 colon): > 100 µM
TGI (HS 578T breast): > 100 µM
TGI (MDA-MB-435): > 100 µM
TGI (PC-3 prostate): > 100 µM
TGI (SF-268 CNS): > 100 µM
TGI (SF-539 CNS): > 100 µM
TGI (SR leukemia): > 100 µM

COc1ccc(C[C@H]2NC(=O)/C=C/C[C@@H]([C@H](C)[C@H]3O[C@@H]3c3ccccc3)OC(=O)[C@H](CC(C)C)OC(=O)[C@H](C)CNC2=O)cc1
TGI (A498 renal): 8.37e-05 µM
TGI (HCT-116 colon): > 0.0001 µM
TGI (HS 578T breast): > 6.66e-05 µM
TGI (MALME-3M melanoma): > 0.0001 µM
TGI (MDA-MB-435): 1.45e-05 µM
TGI (PC-3 prostate): > 0.0001 µM
TGI (SF-268 CNS): > 0.0001 µM
TGI (SF-539 CNS): 4.36e-05 µM

OCc1c2c(cc3c1CC1(C3)Cc3cc4c(c(CO)c3C1)CCC4)CCC2
TGI (A498 renal): 30.3 µM
TGI (HCT-116 colon): 26.4 µM
TGI (HS 578T breast): 36.9 µM
TGI (MALME-3M melanoma): 30 µM
TGI (MDA-MB-435): 36.9 µM
TGI (PC-3 prostate): 39.9 µM
TGI (SF-539 CNS): 32.1 µM

CN(C)NC1=NS(=O)(=O)c2cc3c(cc2S1)N(N(C)C)C(=O)c1cc2c(cc1N(N(C)C)C3=O)SC(NN(C)C)=NS2(=O)=O
TGI (A498 renal): > 10 µM
TGI (BT-549 breast): > 10 µM
TGI (HCT-116 colon): > 10 µM
TGI (HS 578T breast): > 10 µM
TGI (MALME-3M melanoma): > 10 µM
TGI (PC-3 prostate): > 10 µM
TGI (SF-268 CNS): > 10 µM
TGI (SF-539 CNS): > 10 µM
TGI (SR leukemia): > 10 µM

COc1ccc(C2c3cc4c(cc3OC(NNC(N)=O)C2C)OCO4)cc1 (centres undefined)
TGI (A498 renal): 8.59 µM
TGI (BT-549 breast): > 95.7 µM
TGI (HCT-116 colon): 21.5 µM
TGI (HS 578T breast): > 100 µM
TGI (MALME-3M melanoma): > 100 µM
TGI (MDA-MB-435): 8.2 µM
TGI (PC-3 prostate): 53.8 µM
TGI (SF-268 CNS): > 100 µM
TGI (SF-539 CNS): 4.86 µM

O=c1[nH]nc(Cc2ccccc2)n1/N=C/c1ccc([N+](=O)[O-])o1
TGI (A498 renal): 23.1 µM
TGI (BT-549 breast): 1.7 µM
TGI (HCT-116 colon): 6.13 µM
TGI (HS 578T breast): 7.29 µM
TGI (MALME-3M melanoma): 3.21 µM
TGI (MDA-MB-435): 3.8 µM
TGI (PC-3 prostate): 20.9 µM
TGI (SF-268 CNS): 11.7 µM
TGI (SF-539 CNS): 8.94 µM

COc1ccc2c(c1)C1Oc3ccccc3CC1(O)CO2 (centres undefined)
TGI (A498 renal): > 100 µM
TGI (BT-549 breast): > 100 µM
TGI (HCT-116 colon): > 100 µM
TGI (MALME-3M melanoma): > 100 µM
TGI (MDA-MB-435): > 100 µM
TGI (PC-3 prostate): > 100 µM
TGI (SF-268 CNS): > 100 µM
TGI (SF-539 CNS): > 100 µM
TGI (SR leukemia): > 100 µM

CC(C)(C)OC(=O)NC1CCCC1C(O)(C1=CCCC1)C1=CCCC1 (centres undefined)
TGI (A498 renal): > 100 µM
TGI (BT-549 breast): > 100 µM
TGI (HCT-116 colon): > 100 µM
TGI (HS 578T breast): > 100 µM
TGI (MDA-MB-435): > 100 µM
TGI (PC-3 prostate): > 100 µM
TGI (SF-268 CNS): > 100 µM
TGI (SR leukemia): > 100 µM

Cc1ccc(S(=O)(=O)N(CC(O)c2ccccc2)c2ccccc2F)cc1 (centres undefined)
TGI (A498 renal): 36 µM
TGI (BT-549 breast): 32 µM
TGI (HCT-116 colon): 26.4 µM
TGI (HS 578T breast): 41.1 µM
TGI (MALME-3M melanoma): 34.1 µM
TGI (MDA-MB-435): 32.9 µM
TGI (PC-3 prostate): 32.2 µM
TGI (SF-268 CNS): 31.1 µM
TGI (SF-539 CNS): 30.7 µM

NNC(=O)Cc1cccnc1
TGI (A498 renal): > 100 µM
TGI (BT-549 breast): > 100 µM
TGI (HCT-116 colon): > 100 µM
TGI (HS 578T breast): > 100 µM
TGI (MALME-3M melanoma): > 100 µM
TGI (MDA-MB-435): > 100 µM
TGI (PC-3 prostate): > 100 µM
TGI (SF-268 CNS): > 100 µM
TGI (SF-539 CNS): > 100 µM

CC1(C)CC(=O)C2=C(C1)NC(SCC(=O)O)=C(C#N)C2c1ccc(Br)cc1 (centres undefined)
TGI (A498 renal): > 100 µM
TGI (BT-549 breast): > 100 µM
TGI (HCT-116 colon): > 100 µM
TGI (HS 578T breast): > 100 µM
TGI (MDA-MB-435): > 100 µM
TGI (PC-3 prostate): > 100 µM
TGI (SF-268 CNS): > 100 µM

CCOC(O)C(F)(F)F (centres undefined)
TGI (HCT-116 colon): > 100 µM
TGI (HS 578T breast): > 100 µM
TGI (MDA-MB-435): > 100 µM
TGI (PC-3 prostate): > 100 µM
TGI (SF-268 CNS): > 100 µM
TGI (SR leukemia): > 100 µM
